Laboratory results taken from patent US12465472B2, “Methods of insect control for an animal, products thereof and methods for their preparation” (priority 2023, dated 2025).

Legend:
Hermetia illucens larvae [1] = test: Maggot Inhibitory Assay (MIA) with solutions of insecticide or lidocaine infused into wet chicken feed (Example 3); assay type: in vivo; conditions: for insecticide or repellant activity as demonstrated by weight loss and maggot death: solution or neat liquid mixed into wet chicken feed, 5 larvae per dish, ~30 °C
From the text: Determination of anti-myiasis activity by solutions of insecticide, or a lidocaine solution, was studied by Maggot Inhibitory Assay (MIA).
Seven (7) Test and Control Articles: Wet chicken feed (positive control), Tetrahydrafuran infused feed (THF; carrier control), Isopropyl Myristate infused feed (IPM; permeation enhancer control), Lidocaine solution infused feed (LD), Ivermectin infused feed (Iver), Imidacloprid infused feed (IMI), Spinosad infused feed (Spin).
One (1) test organism: Hermetia illucens larvae, “medium size” 3rd instar feeding (crop-full), mean weight 45-60 mg.
• Contact Time: 7 Days • Contact Temperature: 30±2° C. Test Method Overview: See FIG. 10 for Diagrammatic Overview.
Fresh wet chicken feed (WCF) and Hermetia illucens larvae (3rd instar feeding (crop-full) mean weight 45-60 mg) were obtained within 48 hours of the start of the testing. A small (60 mm diameter) petri dish served as the test container for each replicate. Solutions of the test substances were added onto the fresh WCF, and then the WCF with solution was placed into the center of the container and weighed. The POS control utilized an approximately similar-sized sample of fresh WCF, without any solution being added. Five (5) larvae were placed on each test and control article infused the fresh WCF. The lid was placed on the petri dish and the dish was wrapped in parafilm. The test and control containers were kept in an incubator at ˜30° C. temperature, in the dark. Larvae were observed daily for up to two (2) weeks, noting motility and pupation.
A portion of the solution was retained in a sealed glass vial for possible QA/QC. The WCF sample with solution added was mixed thoroughly and left in a fume hood for up to 72 hours to let THE evaporate off.
Test and control containers had about 2.0 g of test solution infused WCF placed into the center of the wetted filter paper.
Each test and control article were prepared in the individual 60 mm petri dishes in triplicate as described, >48 hours before study start. Five (5) larvae were weighed as a group and recorded for each test and control article. The lid was placed on the petri fish and this was wrapped in parafilm, as described. The test and control containers were kept in the incubator at temperature ˜30° C. in the dark. Larvae are observed daily up to two weeks, noting observations on food consumption, weight and pupation.
The weight of the 5 larvae in each assay replicate were determined and recorded by: (a) removing the lid and weighing the container without the lid (larvae+WCF+container); and (b) taring the scale and gently placing the 5 larvae into the lid and recording the total weight.
The results are shown in FIG. 11 as weight gain per maggot over time. At time 0, 5 maggots were placed into each of 3 pre-weighed petri dishes WCF mixed with the following, as described: nothing (OTS), Tetrahydrofuran (THF), Isopropyl Myristate (IPM), Lidocaine (LD), Ivermectin (Iver), Imidacloprid (IMI), or Spinosad (Spin). At each indicated time point, the weight of maggots was recorded and divided by the number of maggots per dish to calculate the weight per maggot. The weight per maggot at time 0 was then subtracted from that at each time point to calculate the weight gain per maggot. Bars represent the mean±standard deviation of 3 replicate petri dishes. In FIG. 11, statistical significance for each solution, relative to the OTS control, was determined using a repeated measures mixed effects model and each petri dish as the experimental unit (fixed effects were time, solution, and time×solution interaction; random effects were individual petri dishes and residuals); p-values were corrected for multiple comparisons with Dunnett's test. *, p<0.05; **, p<0.01; ***, p<0.001; ****, p<0.0001.

Hermetia illucens larvae [2] = test: Maggot Inhibitory Assay (MIA) with ivermectin and lidocaine bands, unused or previously affixed to Holstein calves (Example 4); assay type: in vivo; conditions: positive control solution (1.31 g in 2.35 g THF) in wet chicken feed
From the text: Evaluation of duration of efficacy of anti-myiasis activity by elastomeric bands loaded/infused with insecticide, with or without an active agent for the topical treatment of pain, was studied via ex vivo tissue and band collection and using Maggot Inhibitory Assay (MIA).
Experimental goal: The aim of this experiment was to assess the long-term function of elastomeric bands infused with insecticide, with or without lidocaine, to inhibit the growth of larvae using the novel MIA test disclosed herein, by evaluating the function of ex vivo tissue biopsies taken from scrotal tissue and drug-infused elastomeric bands which were previously placed on Holstein calves for various time periods (3, 7, 14, 21 and 30 days). The protocol used and presented here is based on published literature (Kotze et al., (2022) “Resistance to dicyclanil and imidacloprid in the sheep blowfly, Lucilia cuprina, in Australia”, Pest Manag Sci, 78:4195-4206).
Ivermectin control: A solution of ivermectin was prepared as a positive control (1.31 g ivermectin into 2.35 g of THF). (n=3)
Exposed ILLB: Elastomeric bands infused with ivermectin and lidocaine that were affixed to scrotal sites and removed at each time point. (n=3×5 experiments=15) […]
Animals were randomly allocated to the study. […] Animal IDs and treatment codes were recorded. […] Animals were monitored for any adverse effects. […]

Compound: CCN(CC)CC(=O)Nc1c(C)cccc1C [lidocaine solution, lidocaine]
- activity as an insecticide compared with commercial insecticides (ivermectin, imidacloprid, spinosad) (Hermetia illucens larvae [1]; lidocaine in solution and infused into an elastomeric band): equivalent to commercial insecticides
- insecticide or repellant activity as demonstrated by weight loss and maggot death (Hermetia illucens larvae [1]): effective insecticide or repellant activity

Compound: C1CCOC1 [Tetrahydrofuran]
- insecticide or repellant activity as demonstrated by weight loss and maggot death (Hermetia illucens larvae [1]): no insecticide or repellant activity

Compound: ivermectin
- insecticide or repellant activity as demonstrated by weight loss and maggot death (Hermetia illucens larvae [1]): effective insecticide or repellant activity
- maggot weight change (Hermetia illucens larvae [2]): a decline or no weight gain

Compound: CCCCCCCCCCCCCC(=O)OC(C)C [isopropyl myristate]
- insecticide or repellant activity as demonstrated by weight loss and maggot death (Hermetia illucens larvae [1]): no insecticide or repellant activity

Compound: spinosad
- insecticide or repellant activity as demonstrated by weight loss and maggot death (Hermetia illucens larvae [1]): effective insecticide or repellant activity

Compound: O=[N+]([O-])NC1=NCCN1Cc1ccc(Cl)nc1 [imidacloprid]
- insecticide or repellant activity as demonstrated by weight loss and maggot death (Hermetia illucens larvae [1]): effective insecticide or repellant activity
